# Assay results taken from patent publication US20050222135A1, “Active substance combination” (priority 2004, published 2005).
# Tested on: male Swiss albino mice
# Conditions: 30 minute period after 2 mg/kg naloxone i.v.; Morphine 5 mg/kg/day s.c. over 4 days, Cizolirtine (as citrate) 40 mg/kg/day i.p.
# Procedure: Pharmacodyn. 1971, 190, pages 213-218 in male Swiss albino mice (weight 20-25 g, Harlan Iberica, S. Feliu de Codinas, Barcelona, Spain).
# Withdrawal symptoms are then induced by the intravenous administration of a suitable opioid antagonist in a dose known to those skilled in the art, for example, 2 mg/kg naloxone in case of morphine, 30 minutes after the administration of the final dose of the opioid is completed.
# After the administration of 2 mg/kg naloxone 30 minutes after the administration of the final dose of the active substance combination has been completed, the mice are closely watched for withdrawal symptoms, namely jumps and shakes (of the wet dog shake type), which are then counted and registered.
compound,measurement,value
CN1CC[C@]23c4c5ccc(O)c4O[C@H]2[C@@H](O)C=C[C@H]3[C@H]1C5 [Morphine],Number of jumps,6.6
